According to patent publication US7932270B2 (Cytokinetics, Inc., priority 2006, dated 2011):

target: T1, chicken gizzard smooth muscle myosin subfragment-1 chemically crosslinked to cardiac or skeletal actin (Gallus gallus, UniProt P10587); assay: Smooth muscle myosin ATPase dose response assay (pyruvate kinase/horseradish peroxidase/pyruvate oxidase-coupled, amplex red fluorescence); format: biochemical; conditions: read-out: IC50 Arithmetic Mean
T1 construct: chicken gizzard smooth muscle myosin subfragment-1; from tissue; host or cells: chicken gizzard
In short: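 Inhibition is measured in a peroxidase/pyruvate oxidase-linked format at pH 7.00 and 22° C, 0.15 mM ATP final. Myosin input is titrated to a target turnover since active fraction differs between preparations.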

T1 sequence (P02607 2-151): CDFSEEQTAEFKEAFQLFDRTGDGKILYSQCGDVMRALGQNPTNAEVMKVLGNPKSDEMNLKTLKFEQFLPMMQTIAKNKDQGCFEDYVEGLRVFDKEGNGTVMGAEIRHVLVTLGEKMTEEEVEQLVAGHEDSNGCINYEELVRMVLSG
T1 sequence (P10587 84-789): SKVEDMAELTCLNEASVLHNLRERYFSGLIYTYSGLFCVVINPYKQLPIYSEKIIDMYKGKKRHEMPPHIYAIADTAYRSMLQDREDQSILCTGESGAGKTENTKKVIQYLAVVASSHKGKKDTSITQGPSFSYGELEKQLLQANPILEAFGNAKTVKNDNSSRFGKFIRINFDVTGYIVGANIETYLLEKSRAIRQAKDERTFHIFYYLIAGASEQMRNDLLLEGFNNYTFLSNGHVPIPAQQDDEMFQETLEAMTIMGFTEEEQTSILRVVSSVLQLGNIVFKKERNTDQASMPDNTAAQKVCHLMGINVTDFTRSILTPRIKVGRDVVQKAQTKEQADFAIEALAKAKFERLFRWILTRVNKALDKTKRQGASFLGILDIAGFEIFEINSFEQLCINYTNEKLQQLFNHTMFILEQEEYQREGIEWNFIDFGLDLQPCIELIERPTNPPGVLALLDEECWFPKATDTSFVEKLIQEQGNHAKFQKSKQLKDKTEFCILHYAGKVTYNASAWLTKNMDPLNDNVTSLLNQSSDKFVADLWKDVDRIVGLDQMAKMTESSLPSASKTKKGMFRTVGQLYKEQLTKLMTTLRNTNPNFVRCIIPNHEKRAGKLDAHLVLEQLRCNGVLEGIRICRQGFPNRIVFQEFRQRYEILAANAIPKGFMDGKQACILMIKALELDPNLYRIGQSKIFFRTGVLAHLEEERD

| Compound | IC50 |
| --- | --- |
| C[C@H](N)C(=O)N1CCC[C@@H]1CNC(=O)c1ccc(-c2ccccc2C#N)nc1NCCc1cccc(F)c1 [N-{[(2R)-1-((2S)-2-aminopropanoyl)pyrrolidin-2-yl]methyl}(6-(2-cyanophenyl)-2-{[2-(3-fluorophenyl)ethyl]amino}(3-pyridyl))carboxamide] | 0.053 µM |
| CNC(=O)N1CCC[C@@H]1CNC(=O)c1ccc(-c2ccccc2C#N)nc1NCCc1cccc(F)c1 [N-{[(2R)-1-(N-methylcarbamoyl)pyrrolidin-2-yl]methyl}(6-(2-cyanophenyl)-2-{[2-(3-fluorophenyl)ethyl]amino}(3-pyridyl))carboxamide] | 0.307 µM |
| CCS(=O)(=O)N1CCNC[C@@H]1CNC(=O)c1ccc(-c2ccccc2C#N)nc1NCCc1cccc(F)c1 [N-{[(2R)-1-(ethylsulfonyl)piperazin-2-yl]methyl}(6-(2-cyanophenyl)-2-{[2-(3-fluorophenyl)ethyl]amino}(3-pyridyl))carboxamide] | 16.8 µM |
| CS(=O)(=O)N1CC[C@@H]1CNC(=O)c1ccc(-c2ccccc2C#N)nc1NCCc1cccc(F)c1 [N-{[(2R)-1-(methylsulfonyl)azetidin-2-yl]methyl}(6-(2-cyanophenyl)-2-{[2-(3-fluorophenyl)ethyl]amino}(3-pyridyl))carboxamide] | 1.52 µM |
| CS(=O)(=O)N1CCC[C@@H]1CNC(=O)c1ccc(-c2ccccc2C#N)nc1NCCc1cccc(F)c1 [N-{[(2R)-1-(methylsulfonyl)pyrrolidin-2-yl]methyl}(6-(2-cyanophenyl)-2-{[2-(3-fluorophenyl)ethyl]amino}(3-pyridyl))carboxamide] | 1.45 µM |
| N#Cc1ccccc1-c1ccc(C(=O)NC[C@@H]2CN(CCN)CC(=O)N2)c(NCCc2cccc(F)c2)n1 [N-{[(2R)-4-(2-aminoethyl)-6-oxopiperazin-2-yl]methyl}(6-(2-cyanophenyl)-2-{[2-(3-fluorophenyl)ethyl]amino}(3-pyridyl))carboxamide] | 8.47 µM |
| N#Cc1ccccc1-c1ccc(C(=O)NC[C@@H]2CN(CCCN)CC(=O)N2)c(NCCc2cccc(F)c2)n1 [N-{[(2R)-4-(3-aminopropyl)-6-oxopiperazin-2-yl]methyl}(6-(2-cyanophenyl)-2-{[2-(3-fluorophenyl)ethyl]amino}(3-pyridyl))carboxamide] | 4.52 µM |
| N#Cc1ccccc1-c1ccc(C(=O)NC[C@@H]2CCCCN2C(=O)CN)c(NCCc2cccc(F)c2)n1 [N-{[(2S)-1-(2-aminoacetyl)(2-piperidyl)]methyl}(6-(2-cyanophenyl)-2-{[2-(3-fluorophenyl)ethyl]amino}(3-pyridyl))carboxamide] | 0.074 µM |
| CN1CCN(C(=O)CN)[C@@H](CNC(=O)c2ccc(-c3ccccc3C#N)nc2NCCc2cccc(F)c2)C1 [N-{[(2S)-1-(2-aminoacetyl)-4-methylpiperazin-2-yl]methyl}(6-(2-cyanophenyl)-2-{[2-(3-fluorophenyl)ethyl]amino}(3-pyridyl))carboxamide] | 1.28 µM |
| N#Cc1ccccc1-c1ccc(C(=O)NC[C@@H]2CCCN2C(=O)CN)c(NCCc2cccc(F)c2)n1 [N-{[(2S)-1-(2-aminoacetyl)pyrrolidin-2-yl]methyl}(6-(2-cyanophenyl)-2-{[2-(3-fluorophenyl)ethyl]amino}(3-pyridyl))carboxamide] | 0.995 µM |
| N#Cc1ccccc1-c1ccc(C(=O)NC[C@@H]2CCC(=O)N2CCN)c(NCCc2cccc(F)c2)n1 [N-{[(2S)-1-(2-aminoethyl)-5-oxopyrrolidin-2-yl]methyl}(6-(2-cyanophenyl)-2-{[2-(3-fluorophenyl)ethyl]amino}(3-pyridyl))carboxamide] | 0.917 µM |
| N#Cc1ccccc1-c1ccc(C(=O)NC[C@@H]2CCCCN2C(=O)CCN)c(NCCc2cccc(F)c2)n1 [N-{[(2S)-1-(3-aminopropanoyl)(2-piperidyl)]methyl}(6-(2-cyanophenyl)-2-{[2-(3-fluorophenyl)ethyl]amino}(3-pyridyl))carboxamide] | 0.109 µM |
| CN1CCN(C(=O)CCN)[C@@H](CNC(=O)c2ccc(-c3ccccc3C#N)nc2NCCc2cccc(F)c2)C1 [N-{[(2S)-1-(3-aminopropanoyl)-4-methylpiperazin-2-yl]methyl}(6-(2-cyanophenyl)-2-{[2-(3-fluorophenyl)ethyl]amino}(3-pyridyl))carboxamide] | 2.39 µM |
| N#Cc1ccccc1-c1ccc(C(=O)NC[C@@H]2CCCN2C(=O)CCN)c(NCCc2cccc(F)c2)n1 [N-{[(2S)-1-(3-aminopropanoyl)pyrrolidin-2-yl]methyl}(6-(2-cyanophenyl)-2-{[2-(3-fluorophenyl)ethyl]amino}(3-pyridyl))carboxamide] | 1.86 µM |
| N#Cc1ccccc1-c1ccc(C(=O)NC[C@@H]2CCC(=O)N2CCCN)c(NCCc2cccc(F)c2)n1 [N-{[(2S)-1-(3-aminopropyl)-5-oxopyrrolidin-2-yl]methyl}(6-(2-cyanophenyl)-2-{[2-(3-fluorophenyl)ethyl]amino}(3-pyridyl))carboxamide] | 0.431 µM |
| CN1CCN(C(=O)CCCN)[C@@H](CNC(=O)c2ccc(-c3ccccc3C#N)nc2NCCc2cccc(F)c2)C1 [N-{[(2S)-1-(4-aminobutanoyl)-4-methylpiperazin-2-yl]methyl}(6-(2-cyanophenyl)-2-{[2-(3-fluorophenyl)ethyl]amino}(3-pyridyl))carboxamide] | 2.32 µM |

| Compound | IC50 |
| --- | --- |
| N#Cc1ccccc1-c1ccc(C(=O)NC[C@@H]2CCCN2C(=O)CCCN)c(NCCc2cccc(F)c2)n1 [N-{[(2S)-1-(4-aminobutanoyl)pyrrolidin-2-yl]methyl}(6-(2-cyanophenyl)-2-{[2-(3-fluorophenyl)ethyl]amino}(3-pyridyl))carboxamide] | 1.27 µM |
| CS(=O)(=O)N1CCCC[C@H]1CNC(=O)c1ccc(-c2ccccc2C#N)nc1NCCc1cccc(F)c1 [N-{[(2S)-1-(methylsulfonyl)(2-piperidyl)]methyl}(6-(2-cyanophenyl)-2-{[2-(3-fluorophenyl)ethyl]amino}(3-pyridyl))carboxamide] | 1.63 µM |
| CN1CCN(C(=O)CN)C[C@@H]1CNC(=O)c1ccc(-c2ccccc2C#N)nc1NCCc1cccc(F)c1 [N-{[(2S)-4-(2-aminoacetyl)-1-methylpiperazin-2-yl]methyl}(6-(2-cyanophenyl)-2-{[2-(3-fluorophenyl)ethyl]amino}(3-pyridyl))carboxamide] | 6.97 µM |
| N#Cc1ccccc1-c1ccc(C(=O)NC[C@H]2CN(C(=O)CN)CCN2)c(NCCc2cccc(F)c2)n1 [N-{[(2S)-4-(2-aminoacetyl)piperazin-2-yl]methyl}(6-(2-cyanophenyl)-2-{[2-(3-fluorophenyl)ethyl]amino}(3-pyridyl))carboxamide] | 8.88 µM |
| N#Cc1ccccc1-c1ccc(C(=O)NC[C@H]2CN(CCN)CC(=O)N2)c(NCCc2cccc(F)c2)n1 [N-{[(2S)-4-(2-aminoethyl)-6-oxopiperazin-2-yl]methyl}(6-(2-cyanophenyl)-2-{[2-(3-fluorophenyl)ethyl]amino}(3-pyridyl))carboxamide] | 0.623 µM |
| CN1CCN(C(=O)CCN)C[C@@H]1CNC(=O)c1ccc(-c2ccccc2C#N)nc1NCCc1cccc(F)c1 [N-{[(2S)-4-(3-aminopropanoyl)-1-methylpiperazin-2-yl]methyl}(6-(2-cyanophenyl)-2-{[2-(3-fluorophenyl)ethyl]amino}(3-pyridyl))carboxamide] | 17 µM |
| N#Cc1ccccc1-c1ccc(C(=O)NC[C@H]2CN(C(=O)CCN)CCN2)c(NCCc2cccc(F)c2)n1 [N-{[(2S)-4-(3-aminopropanoyl)piperazin-2-yl]methyl}(6-(2-cyanophenyl)-2-{[2-(3-fluorophenyl)ethyl]amino}(3-pyridyl))carboxamide] | 11.2 µM |
| N#Cc1ccccc1-c1ccc(C(=O)NC[C@H]2CN(CCCN)CC(=O)N2)c(NCCc2cccc(F)c2)n1 [N-{[(2S)-4-(3-aminopropyl)-6-oxopiperazin-2-yl]methyl}(6-(2-cyanophenyl)-2-{[2-(3-fluorophenyl)ethyl]amino}(3-pyridyl))carboxamide] | 2.81 µM |
| CN1CCN(C(=O)CCCN)C[C@@H]1CNC(=O)c1ccc(-c2ccccc2C#N)nc1NCCc1cccc(F)c1 [N-{[(2S)-4-(4-aminobutanoyl)-1-methylpiperazin-2-yl]methyl}(6-(2-cyanophenyl)-2-{[2-(3-fluorophenyl)ethyl]amino}(3-pyridyl))carboxamide] | 6.72 µM |
| N#Cc1ccccc1-c1ccc(C(=O)NC[C@H]2CN(C(=O)CCCN)CCN2)c(NCCc2cccc(F)c2)n1 [N-{[(2S)-4-(4-aminobutanoyl)piperazin-2-yl]methyl}(6-(2-cyanophenyl)-2-{[2-(3-fluorophenyl)ethyl]amino}(3-pyridyl))carboxamide] | 12.4 µM |
| N#Cc1ccccc1-c1ccc(C(=O)NC[C@H]2CCCN(C(=O)CN)C2)c(NCCc2cccc(F)c2)n1 [N-{[(3R)-1-(2-aminoacetyl)(3-piperidyl)]methyl}(6-(2-cyanophenyl)-2-{[2-(3-fluorophenyl)ethyl]amino}(3-pyridyl))carboxamide] | 0.246 µM |
| N#Cc1ccccc1-c1ccc(C(=O)NC[C@H]2CCCN(C(=O)CCN)C2)c(NCCc2cccc(F)c2)n1 [N-{[(3R)-1-(3-aminopropanoyl)(3-piperidyl)]methyl}(6-(2-cyanophenyl)-2-{[2-(3-fluorophenyl)ethyl]amino}(3-pyridyl))carboxamide] | 0.173 µM |
| N#Cc1ccccc1-c1ccc(C(=O)NC[C@H]2CCCN(C(=O)CCCN)C2)c(NCCc2cccc(F)c2)n1 [N-{[(3R)-1-(4-aminobutanoyl)(3-piperidyl)]methyl}(6-(2-cyanophenyl)-2-{[2-(3-fluorophenyl)ethyl]amino}(3-pyridyl))carboxamide] | 0.512 µM |
| N#Cc1ccccc1-c1ccc(C(=O)NC[C@@H]2CCCN(C(=O)CN)C2)c(NCCc2cccc(F)c2)n1 [N-{[(3S)-1-(2-aminoacetyl)(3-piperidyl)]methyl}(6-(2-cyanophenyl)-2-{[2-(3-fluorophenyl)ethyl]amino}(3-pyridyl))carboxamide] | 0.755 µM |
| N#Cc1ccccc1-c1ccc(C(=O)NC[C@@H]2CCCN(C(=O)CCN)C2)c(NCCc2cccc(F)c2)n1 [N-{[(3S)-1-(3-aminopropanoyl)(3-piperidyl)]methyl}(6-(2-cyanophenyl)-2-{[2-(3-fluorophenyl)ethyl]amino}(3-pyridyl))carboxamide] | 1.26 µM |
